Measured values as given in paper PMC11417994, “Cyclohexanediamine Triazole (CHDT) Functionalization Enables Labeling of Target Molecules with Al^18F/^68Ga/^111In” (Bioconjugate Chemistry, 2024).
Values joined by “and” are separate entries in the source; they are usually repeats but may differ in a detail not shown here. Identical values can stand only once.

Assays:
[1] = same conditions; cited from earlier work
PSMA [2] = molecular target: T1, PSMA (Homo sapiens, UniProt Q04609); assay: Saturation binding (surface-bound and internalized), LNCaP spheroids
T1 construct: Detection of endogenous PSMA expression in LNCaP and PC3 cells relative to β-actin expression by Western; host or cells: LNCaP human prostate carcinoma cells (monolayer, spheroids or Potter-Elvehjem homogenates)
T1 sequence (Q04609 whole entry): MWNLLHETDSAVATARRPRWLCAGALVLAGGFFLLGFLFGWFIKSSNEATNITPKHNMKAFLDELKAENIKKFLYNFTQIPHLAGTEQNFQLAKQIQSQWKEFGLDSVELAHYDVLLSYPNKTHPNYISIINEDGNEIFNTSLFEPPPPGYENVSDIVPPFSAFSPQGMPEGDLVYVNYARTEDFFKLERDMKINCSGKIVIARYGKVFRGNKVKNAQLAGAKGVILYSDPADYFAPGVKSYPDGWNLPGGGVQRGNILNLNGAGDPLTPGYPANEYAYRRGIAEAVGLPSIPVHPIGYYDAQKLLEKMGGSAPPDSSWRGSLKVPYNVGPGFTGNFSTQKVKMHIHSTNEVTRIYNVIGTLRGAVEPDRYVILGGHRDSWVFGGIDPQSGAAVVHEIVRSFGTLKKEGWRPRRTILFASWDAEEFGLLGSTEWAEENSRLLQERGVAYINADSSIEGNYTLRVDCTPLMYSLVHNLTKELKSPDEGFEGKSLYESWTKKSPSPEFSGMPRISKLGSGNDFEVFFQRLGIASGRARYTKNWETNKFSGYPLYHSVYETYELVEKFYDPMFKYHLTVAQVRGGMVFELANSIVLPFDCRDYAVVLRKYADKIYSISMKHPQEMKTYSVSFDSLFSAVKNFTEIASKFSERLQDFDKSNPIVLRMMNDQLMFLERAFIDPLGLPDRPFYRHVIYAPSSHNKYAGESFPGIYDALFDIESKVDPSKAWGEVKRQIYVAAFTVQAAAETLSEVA
Description: (§1) In addition to assessing the binding affinities for nonlabeled CHDT-PSMA-1/2/3, we sought to characterize the saturation binding of the Al^18F-, ^68Ga-, and ^111In-labeled compounds using LNCaP cells cultured in monolayers and as spheroids. The saturation binding curves for Al[^18F]F-CHDT-PSMA-1/2/3 are depicted in Figure 3, while the graphs for [^18F]PSMA-1007 and ^68Ga- and ^111In-labeled CHDT-PSMA-1/2/3 can be found in Figures S7–S9 in the Supporting Information. The binding parameters (Kd and Bmax) for Al[^18F]F-CHDT-PSMA-1/2/3 and [^18F]PSMA-1007 are summarized in Table 3 (for the ^68Ga- and ^111In-labeled compounds see Tables S4 and S5 in the Supporting Information). For the saturation binding assays, we recorded surface-bound radioligand (named “binding”), which refers to bound radioligand that can be removed by acid wash, and internalized or acid-resistant radioligand (named “internalization”), which refers to radioligand that remains cell-bound after acid wash. Consequently, two saturation binding plots were obtained and two sets of binding parameters (Kd/Bmax and Kd,int/Bmax,int) were derived.
For the formation of spheroids, the LNCaP cells were incubated overnight in a normal culture bottle with biocompatible nanoparticles ([…] with 80 μL of a suspension consisting of Au, Fe2O3 and poly-L-lysine called Nanoshuttle, Greiner Bio-One GmbH, Germany). After harvesting and cell counting, 10,000 cells/well of a 24-well plate or 7,000 cells/well of a 96-well plate (cell-repellent plates) were sown. The well plates were placed on matching plates with button magnets (Greiner Bio-One GmbH, Germany). The magnetized LNCaP cells formed suitable spheroids that were used after 5 d.
(§2) For saturation assays in well plates, monolayers of LNCaP (sowing 5 × 10^4 cells/well in 48-well plates 2 days before the assay), as well as LNCaP spheroids were incubated with radiolabeled CHDT-PSMA-1/2/3 and PSMA-1007 (0.2 nM to 100 nM) with adjacent samples receiving KuE (0.8 mM) at 37 °C for 2 h. The number of experiments can be derived from the data in the Tables S4, S5, and S7 in the Supporting Information. After removing the incubation medium and washing of cells with ice-cold PBS (containing Mg^2+ and Ca^2+) the surface-bound activity was stripped with 4 °C cold acid-wash buffer (0.2 M glycine, 0.15 M NaCl, pH 3.0) for 10 min. The acid wash buffer was transferred from the wells to measuring tubes, as was the PBS buffer after washing once. Cytosolic activity (internalized radioligand) was determined after treatment with cell lysis buffer (1% SDS in 0.1 M NaOH) at 37 °C for 30 min. Cell surface and cytosolic activity were measured separately in a gamma counter. Time-depending internalization assays were performed only with cells in monolayer. The incubation (radioligand concentration 13 nM) for these assays was terminated after 10 min, 1 and 3 h, with ^111In and ^177Lu additionally after 24 and 48 h at 37 °C, respectively. During the internalization assays adjacent samples received KuE (0.8 mM) for PSMA blocking, methyl-β-cyclodextrin (MβCD; 3 mM) or KuE together with MβCD, 1 h before radioligand application. The number of experiments can be derived from the data of Figure S11 and associated table and from Table S8 in the Supporting Information.
(§3) Dissociations constants (Kd and Kd,int), as well as maximal binding capacities (Bmax and Bmax,int), were derived from specific binding data by nonlinear regression according to the model of “One site-specific binding” as implemented in GraphPad Prism 10. Protein content was determined using the bicinchoninic acid protein assay kit (Pierce, Thermo Scientific) to calculate the binding capacities in pmol/mg and for the time-depending internalization the internalized percent of administrated dose per μg protein (% AD/μg protein).

PSMA [3] = molecular target: T1, PSMA; assay: Saturation binding (surface-bound and internalized), intact LNCaP cells as monolayer
Description: as §1, §2, §3

[4] = n-Octanol/PBS distribution coefficient (logD7.4); assay type: physicochemical; conditions: Table S1 individual values
Protocol: The log D7.4 values were determined as follows: 500 μL of n-octanol and 450 μL of PBS (pH 7.4) were premixed prior to the addition of 50 μL of the respective radiolabeled compound. The mixture was vigorously stirred for 30 min at 22 °C, and thereafter centrifuged for 5 min at 7,500g at 22 °C. Aliquots of the n-octanol and the aqueous phases were transferred to measuring tubes, and the activity counts in both phases were measured in a gamma counter (Hidex Deutschland Vertrieb GmbH, Germany). The logarithm of the quotient of the activity counts from the n-octanol and the aqueous phase was calculated, which is equal to the log D7.4 value.

PSMA [5] = molecular target: T1, PSMA; assay: Competition binding assay, LNCaP cell homogenates, radioligand [177Lu]Lu-PSMA-617; conditions: nonlabeled compounds; [177Lu]Lu-PSMA-617 12 nM; 37 °C, 60 min; Table 2 mean (SEM), Table S3 individual experiments and mean
Protocol: The binding affinity of the nonlabeled CHDT-PSMA-1/2/3, PSMA-1007, PSMA-617, and KuE was assessed in competition binding assays using LNCaP cell homogenates (∼1 × 10^6 cells/mL using Potter-Elvehjem) and the radioligand [^177Lu]Lu-PSMA-617 (n = 5 for CHDT-PSMA-1; n = 4 for CHDT-PSMA-2/3; n = 2 for PSMA-1007; n = 8 for PSMA-617; n = 6 for KuE). […] The assays were performed in a final volume of 200 μL. The incubation was stopped by washing the homogenate with cold PBS four times using a filter (Whatman GF/C, 90 min presoaked in 0.3% polyethylenimine) in a cell harvester (Brandel, USA). The radioactivity bound to the filter was measured in a gamma counter. Filter binding was determined for adjacent samples without cell homogenate. The experiments were performed two to four times in triplicates or quadruplicates. Inhibitory constants (Ki) were derived from nonlinear regression according to the model of “One site – Fit Ki” as implemented in GraphPad Prism 10. The Kd value of [^177Lu]Lu-PSMA-617 was determined in saturation binding assays using LNCaP cell homogenates to be 15.2 (±2.1) nM.

[6] = Serum stability assay in human serum (radio-TLC/radio-HPLC); assay type: in vitro ADME; conditions: 37 °C, radio-TLC; for Percentage of intact radioligand after 3 h in human serum: Table 1 mean ± SEM, Table S1 individual values
Protocol: To investigate the serum stability of the radiolabeled CHDTA-PSMA-1/2/3, human serum (frozen, from male AB clotted whole blood; Sigma-Aldrich/Merck) was centrifuged for 5 min at 20,000g at 4 °C after thawing. The supernatant was sterile filtrated (filter pore 0.2 μm). Four parts serum and one part of radioligand were incubated at 37 °C with shaking. Aliquots were taken after 3 h and for the ^111In-labeled compounds also after 24 and 48 h, and residual intact radiolabeled compound was determined by radio-TLC and/or radio-HPLC. For analysis by radio-HPLC, the aliquots were mixed with Supersol (mixture for protein precipitation that consists of 20% ethanol, 0.5% Triton X-100, 5 mM EDTA and 0.1% saponin)[72] and kept on ice for 5 min. After centrifugation for 5 min at 20,000g at 4 °C, the supernatant was used for radio-HPLC analysis.

[7] = Al^18F-labeled conjugate or [18F]PSMA-1007, acid-resistant fraction, read-out: Kd,int (internalization)
[8] = Al^18F-labeled conjugate or [18F]PSMA-1007, surface-bound
[9] = Al^18F-labeled conjugate or [18F]PSMA-1007, surface-bound, read-out: Kd (binding)
[10] = Al^18F-labeled conjugate or [18F]PSMA-1007, surface-bound, 37 °C, 2 h, read-out: Kd (binding)
[11] = pH 7.4, radiolabel Al^18F, Table 1 mean ± SEM of three experiments
[12] = pH 7.4, radiolabel ^68Ga, Table 1 mean ± SEM
[13] = pH 7.4, radiolabel ^111In, Table 1 mean ± SEM
[14] = [111In]In-labeled conjugate, surface-bound

SMILES	64Cu-transchelation in human serum [1]	Kd (PSMA [2]; [7])	Bmax (binding) (PSMA [2]; [8])	Kd (PSMA [2]; [9])	Bmax,int (internalization) (PSMA [2]; [111In]In-labeled conjugate)	Kd (PSMA [3]; [7])	Bmax (binding) (PSMA [3]; [8])	Kd (PSMA [3]; [10])	logD [4, 11]	logD [4, 12]	logD [4, 13]	Ki (PSMA [5])	Percentage of intact radioligand after 3 h in human serum ([6]; radiolabel Al^18F)	Percentage of intact radioligand after 3 h in human serum ([6]; radiolabel ^68Ga)	Percentage of intact radioligand after 3 h in human serum ([6]; radiolabel ^111In, 3 h)	Percentage of intact radioligand in human serum after 24 h (*) ([6]; radiolabel ^111In)	Percentage of intact radioligand in human serum after 48 h (**) ([6]; radiolabel ^111In)	Bmax (binding) (PSMA [2]; [14])	Bmax,int (internalization) (PSMA [3]; [111In]In-labeled conjugate)	other results
O=C(O)CN1CCCN(CC(=O)O)CCN(CC(=O)O)CCCN(CC(=O)O)CC1 [TETA]	only minimal	–	–	–	–	–	–	–	–	–	–	–	–	–	–	–	–	–	–	–
NC12CNCCNCC(N)(CNCCNC1)CNCCNC2 [diamSar]	only minimal	–	–	–	–	–	–	–	–	–	–	–	–	–	–	–	–	–	–	–
O=C(O)CN1CCN(CC(=O)O)CCN(CC(=O)O)CC1 [NOTA]	only minimal	–	–	–	–	–	–	–	–	–	–	–	–	–	–	–	–	–	–	–
O=C(O)CCC(NC(=O)NC(CCCCNC(=O)Cn1cc(CN(CC(=O)O)[C@@H]2CCCC[C@H]2N(CC(=O)O)CC(=O)O)nn1)C(=O)O)C(=O)O (mixture of isomers) [CHDT-PSMA-1]	–	37.4 ± 10.7 nM	1.49 ± 0.36 pmol/mg	41.5 ± 26.4 nM	0.03 pmol/mg and 0.06 pmol/mg and 0.04 pmol/mg	18.4 ± 7.3 nM	1.87 ± 0.57 pmol/mg	26.4 ± 11 nM	-3.6	-3.36	-4.23	85.5 nM and 120 nM and 86.9 nM and 152 nM and 132 nM and 115 nM	98.9% and 99.0% and 98.8% and 98.9 ± 0.1%	98.8% and 94.4% and 96.6 ± 2.2 %	99.7% and 99.3% and 99.4% and 99.5 ± 0.1%	99.8% and 99.5% and 99.6 ± 0.1%	99.7% and 99.3% and 98.9% and 99.3 ± 0.2%	–	–	–
O=C(O)CCC(NC(=O)NC(CCCCNC(=O)[C@@H](Cc1cccc2ccccc12)NC(=O)CCCCCn1cc(CN(CC(=O)O)[C@@H]2CCCC[C@H]2N(CC(=O)O)CC(=O)O)nn1)C(=O)O)C(=O)O (mixture of isomers) [CHDT-PSMA-2]	–	15.7 ± 0.8 nM	1.07 ± 0.13 pmol/mg	15.8 ± 4.4 nM	0.20 pmol/mg and 0.10 pmol/mg and 0.15 pmol/mg	14.4 ± 4.8 nM	1.33 ± 0.10 pmol/mg	12.9 ± 4 nM	-3.34	-3.11	-3.44	48.1 nM and 71.2 nM and 40.5 nM and 34.5 nM and 49 nM	99.3% and 98.7% and 99.1 ± 0.2%	97.7% and 97.4% and 97.0% and 97.6 ± 0.1%	99.6% and 98.3% and 98.6% and 98.8 ± 0.4%	98.9% and 98.8% and 97.6% and 98.4 ± 0.4%	99.9% and 98.5% and 97.6% and 98.7 ± 0.7%	0.15 pmol/mg and 0.25 pmol/mg and 0.20 pmol/mg	0.25 pmol/mg and 0.17 pmol/mg and 0.21 pmol/mg	–
O=C(O)CCC(NC(=O)NC(CCCCNC(=O)[C@H](Cc1ccc2ccccc2c1)NC(=O)[C@H]1CC[C@H](CNC(=O)CCCCn2cc(CN(CC(=O)O)[C@@H]3CCCC[C@H]3N(CC(=O)O)CC(=O)O)nn2)CC1)C(=O)O)C(=O)O (mixture of isomers) [CHDT-PSMA-3]	–	36.4 ± 14.6 nM	–	38.6 ± 25.8 nM	0.31 pmol/mg and 0.33 pmol/mg and 0.32 pmol/mg	14.4 ± 7.3 nM	2.18 ± 0.97 pmol/mg	19.7 ± 8.4 nM	-3.43	-3.09	-3.87	7.65 nM and 3.21 nM and 9.15 nM and 12.6 nM and 8.1 nM	99.2% and 99.6% and 99.3 ± 0.1%	98.6% and 99.6% and 99.3% and 99.1 ± 0.4%	99.5% and 98.8% and 99.2% and 99.2 ± 0.2%	98.9% and 99.6% and 99.1 ± 0.2%	99.9% and 99.5% and 98.7% and 99.4 ± 0.4%	0.21 pmol/mg and 0.40 pmol/mg and 0.30 pmol/mg	0.65 pmol/mg and 0.49 pmol/mg and 0.57 pmol/mg	Bmax,int (internalization) (PSMA [2]; [68Ga]Ga-labeled conjugate, only one assay): 0.75 pmol/mg; Bmax (binding) (PSMA [3]; [14]): 0.50 pmol/mg and 0.91 pmol/mg and 0.70 pmol/mg
